Assay results from ChEMBL document CHEMBL1132216, “Studies on the monoamine oxidase-B-catalyzed biotransformation of 4-azaaryl-1-methyl-1,2,3,6-tetrahydropyridine derivatives” (J Med Chem, 1999).

Assay: Ratio of Kcat versus Km was determined

| SMILES | Ratio |
| --- | --- |
| CN1CC=C(c2ccc[nH]2)CC1 | 46 |
| CN1CC=C(c2cccn2C)CC1 | 1800 |
